# Measurements: ChEMBL document CHEMBL5104092, “An insight into the recent development of the clinical candidates for the treatment of malaria and their target proteins” (Eur J Med Chem, 2021)
# How the values were obtained:
# [1] = test system: Plasmodium falciparum; assay: Antimalarial activity against chloroquine sensitive Plasmodium falciparum T96 infected in human erythrocytes by microplate fluorometric detection method; type: functional, organism-based
# [2] = test system: Plasmodium falciparum; assay: Antimalarial activity against chloroquine resistant Plasmodium falciparum K1 infected in human erythrocytes by microplate fluorometric detection method; type: functional, organism-based
# [3] = test system: Plasmodium falciparum; assay: Antimalarial activity against chloroquine sensitive Plasmodium falciparum 3D7 incubated for 72 hrs by malaria SYBR green I nucleic acid staining dye based fluorescence assay; type: functional, organism-based; conditions: 3D7, 72 h
# [4] = test system: Plasmodium falciparum; assay: Antimalarial activity against multidrug resistant Plasmodium falciparum Dd2 incubated for 72 hrs by malaria SYBR green I nucleic acid staining dye based fluorescence assay; type: functional, organism-based; conditions: Dd2, 72 h
# [5] = test system: Plasmodium falciparum; assay: Antimalarial activity against multidrug resistant Plasmodium falciparum K1 incubated for 72 hrs by malaria SYBR green I nucleic acid staining dye based fluorescence assay; type: functional, organism-based; conditions: K1, 72 h
# [6] = test system: Plasmodium falciparum; assay: Antimalarial activity against Plasmodium falciparum Dd2; type: functional, organism-based
# [7] = test system: HepG2; assay: Cytotoxicity against human HepG2 cells; type: functional, cell-based
# [8] = Cytotoxicity against human HEK293 cells; type: toxicity, cell-based
# [9] = test system: A549; assay: Cytotoxicity against human A549 cells; type: functional
# [10] = test system: Plasmodium falciparum; assay: Antimalarial activity against chloroquine sensitive Plasmodium falciparum 3D7 incubated for 72 hrs by SYBR green I assay; type: functional, organism-based; conditions: 3D7, 72 h
# [11] = test system: Plasmodium falciparum; assay: Antimalarial activity against chloroquine resistant Plasmodium falciparum Dd2 incubated for 72 hrs by malaria SYBR green I based assay; type: functional, organism-based; conditions: Dd2, 72 h
compound,measurement,setting,value
COC(=O)CC[C@@H](C)[C@H]1CCC2C3CC[C@@H]4CC5(CC[C@]4(C)C3C[C@H](OC(C)=O)[C@@]21C)OOC(C)(C)OO5 (stereo partly specified),EC50,[1],131 nM
same,EC50,[2],3 nM
C[C@@H]1CCC2[C@@H](C)[C@H](OC(=O)CCC(=O)NCCNc3ccnc4cc(Cl)ccc34)O[C@@H]3O[C@]4(C)CC[C@@H]1[C@@]23OO4 (stereo partly specified),EC50,[3],2.7 nM
same,EC50,[4],1 nM
same,EC50,[5],0.78 nM
COc1ccc(NC(=O)N2CCCCN3C[C@H](c4ccc(C#Cc5ccccc5)cc4)[C@@H]3C2)cc1,EC50,[6],15 nM
same,CC50,[7],> 50000 nM
same,CC50,[8],> 50000 nM
same,CC50,[9],38000 nM
C=C(c1ccc(C)cc1C)C1COC2(CCC(Nc3ccccc3)CC2)OO1 (stereo unspecified),IC50,[10],19.6 nM
CN(C)CCNc1cc(/C=C/c2ccncc2)nc2ccccc12,IC50,[11],33 nM
